Experimental data: patent US7550485B2, “Substituted N-heterocycle derivatives and methods of their use” (Wyeth, priority 2003, dated 2009)
pEC50: −log10 of the molar value. Where a name gives a salt, the structure may show the parent alone.

Molecular target: T1, hNET (Homo sapiens, UniProt P23975)
T1 construct: expressed in transfected cells
Assay: Norepinephrine (NE) uptake assay in MDCK-Net6 cells stably transfected with human hNET
Type: cell-based
Settings: [3H]NE uptake; for inhibition at 1 µM: MDCK-Net6, 1 μM test compound; for pEC50: test range 1 to 10,000 nM
Procedure: MDCK-Net6 cells, stably transfected with human hNET (Pacholczyk, T., R. D. Blakely, and S. G. Amara, Nature, 1991, 350(6316): p. 350-4) were cultured in growth medium containing high glucose DMEM (Gibco, Cat. No. 11995), 10% FBS (dialyzed, heat-inactivated, US Bio-Technologies, Lot FBD1129HI) and 500 μg/ml G418 (Gibco, Cat. No. 10131). Cells were plated at 300,000/T75 flask and cells were split twice weekly. The JAR cell line (human placental choriocarcinoma) was purchased from ATCC (Cat. No. HTB-144). The cells were cultured in growth medium containing RPMI 1640 (Gibco, Cat. No. 72400), 10% FBS (Irvine, Cat. No. 3000), 1% sodium pyruvate (Gibco, Cat. No. 1136) and 0.25% glucose. Cells were plated at 250,000 cells/T75 flask and split twice weekly. For all assays, cells were plated in Wallac 96-well sterile plates (PerkinElmer, Cat. No. 3983498).
Norepinephrine (NE) Uptake Assay
On day 1, cells were plated at 3,000 cells/well in growth medium and maintained in a cell incubator (37° C., 5% CO2). On day 2, growth medium was replaced with 200 μl of assay buffer (25 mM HEPES; 120 mM NaCl; 5 mM KCl; 2.5 mM CaCl2; 1.2 mM MgSO4; 2 mg/ml glucose (pH 7.4, 37° C.)) containing 0.2 mg/ml ascorbic acid and 10 μM pargyline. Plates containing cells with […] of assay buffer were equilibrated for 10 minutes at 37° C. prior to addition of compounds. A stock solution of desipramine was prepared in DMSO (10 mM) and delivered to triplicate wells containing cells for a final test concentration of 1 μM. Data from these wells were used to define non-specific NE uptake (minimum NE uptake). Test compounds were prepared in DMSO (10 mM) and diluted in assay buffer according to test range (1 to 10,000 nM). Twenty-five microliters of assay buffer (maximum NE uptake) or test compound were added directly to triplicate wells containing cells in 200 μl of assay buffer. The cells in assay buffer with test compounds were incubated for 20 minutes at 37° C. To initiate the NE uptake, [^3H]NE diluted in assay buffer (120 nM final assay concentration) was delivered in 25 μl aliquots to each well and the plates were incubated for 5 minutes (37° C.). The reaction was terminated by decanting the supernatant from the plate. The plates containing cells were washed twice with 200 μl assay buffer (37° C.) to remove free radioligand. The plates were then inverted, left to dry for 2 minutes, then reinverted and air-dried for an additional 10 minutes. The cells were lysed in 25 μl of 0.25 N NaOH solution (4° C.), placed on a shake table and vigorously shaken for 5 minutes. After cell lysis, 75 μl of scintillation cocktail was added to each well and the plates were sealed with film tape. The plates were returned to the shake table and vigorously shaken for a minimum of 10 minutes to ensure adequate partitioning of organic and aqueous solutions. The plates were counted in a Wallac Microbeta counter (PerkinElmer) to collect the raw cpm data.
For each experiment, a data stream of cpm values collected from the Wallac Microbeta counter was downloaded to a Microsoft Excel statistical application program. Calculations of EC50 values were made using the transformed-both-sides logistic dose response program written by Wyeth Biometrics Department. The statistical program uses mean cpm values from wells representing maximum binding or uptake (assay buffer) and mean cpm values from wells representing minimum binding or uptake ((1 μM desipramine (hNET) or 1 μM paroxetine (hSERT)). Estimation of the EC50 value was completed on a log scale and the line was fit between the maximum and minimum binding or uptake values. All graphic data representation was generated by normalizing each data point to a mean percent based on the maximum and minimum binding or uptake values. The EC50 values reported from multiple experiments were calculated by pooling the raw data from each experiment and analyzing the pooled data as one experiment.

T1 sequence (P23975 whole entry): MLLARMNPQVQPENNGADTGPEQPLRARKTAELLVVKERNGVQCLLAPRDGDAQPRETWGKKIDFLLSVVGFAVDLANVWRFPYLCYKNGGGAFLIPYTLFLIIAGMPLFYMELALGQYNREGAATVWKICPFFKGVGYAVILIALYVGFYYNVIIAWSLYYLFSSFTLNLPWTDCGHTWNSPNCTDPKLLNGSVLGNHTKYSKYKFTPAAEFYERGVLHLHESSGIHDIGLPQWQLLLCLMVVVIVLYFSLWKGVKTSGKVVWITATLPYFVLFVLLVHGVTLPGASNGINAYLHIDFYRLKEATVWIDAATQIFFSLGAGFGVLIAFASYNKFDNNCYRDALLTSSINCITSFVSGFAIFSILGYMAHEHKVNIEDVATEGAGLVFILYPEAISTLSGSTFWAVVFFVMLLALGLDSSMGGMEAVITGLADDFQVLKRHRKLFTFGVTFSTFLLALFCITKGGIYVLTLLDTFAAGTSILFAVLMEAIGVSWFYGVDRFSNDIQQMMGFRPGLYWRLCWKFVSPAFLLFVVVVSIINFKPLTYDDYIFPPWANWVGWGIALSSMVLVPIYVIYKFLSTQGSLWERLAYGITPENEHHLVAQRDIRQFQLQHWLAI

With `CN(C)[C@H]1CCCN(CC(c2ccc(OCc3ccccc3)c(Cl)c2)C2(O)CCCCC2)C1` (stereo partly drawn) [Example 197, 1-{1-[4-(benzyloxy)-3-chlorophenyl]-2-[(3S)-3-(dimethylamino)piperidin-1-yl]ethyl}cyclohexanol dihydrochloride] as the compound, how does the inhibition at 1 µM read?
Its inhibition at 1 µM is 76%.

With `CN[C@H]1CCN(CC(c2cccc(OC(F)(F)F)c2)C2(O)CCCCC2)C1` (stereo partly drawn) [Example 215, 1-{2-[(3S)-3-(methylamino)pyrrolidin-1-yl]-1-[3-(trifluoromethoxy)phenyl]ethyl}cyclohexanol dihydrochloride] as the compound, how does the inhibition at 1 µM read?
Its inhibition at 1 µM is 30.2%.

`CN[C@H]1CCCN(CC(c2cccc(OC(F)(F)F)c2)C2(O)CCCCC2)C1` (stereo partly drawn) [Example 189, 1-{2-[(3S)-3-(methylamino)piperidin-1-yl]-1-[3-(trifluoromethoxy)phenyl]ethyl}cyclohexanol dihydrochloride] was tested. Which inhibition at 1 µM did it give?
The inhibition at 1 µM was 67.9%.

For `CN[C@H]1CCCN(CC(c2ccc(OCc3ccccc3)c(Cl)c2)C2(O)CCCCC2)C1` (stereo partly drawn) [Example 195, 1-{1-[4-(benzyloxy)-3-chlorophenyl]-2-[(3S)-3-(methylamino)piperidin-1-yl]ethyl}cyclohexanol dihydrochloride], which inhibition at 1 µM is on record?
Its inhibition at 1 µM is 92%.

What does the source list for `NC1CCN(CC(c2ccc(Cl)c(Cl)c2)C2(O)CCCCC2)CC1` (stereo not drawn) [Example 14, 1-[2-(4-aminopiperidin-1-yl)-1-(3,4-dichlorophenyl)ethyl]cyclohexanol dihydrochloride]?
inhibition at 1 µM: 84%; pEC50: 7.05

Which inhibition at 1 µM does the source give for `COc1ccc2cc(C(CN3CCC(N)CC3)C3(O)CCCCC3)ccc2c1` (stereo not drawn) [Example 342, 1-[2-(4-aminopiperidin-1-yl)-1-(6-methoxy-2-naphthyl)ethyl]cyclohexanol dihydrochloride] here?
The inhibition at 1 µM was 59%.

What about the pEC50 of the same compound?
Its pEC50 is 6.41.

For `N[C@H]1CCN(CC(c2cccc(C(F)(F)F)c2)C2(O)CCCCC2)C1` (stereo partly drawn) [Example 221, 1-{2-[(3S)-3-aminopyrrolidin-1-yl]-1-[3-(trifluoromethyl)phenyl]ethyl}cyclohexanol dihydrochloride], which inhibition at 1 µM is on record?
The inhibition at 1 µM was 63.9%.

For `N[C@H]1CCN(CC(c2ccc3ccccc3c2)C2(O)CCCCC2)C1` (stereo partly drawn) [Example 204, 1-[2-[(3S)-3-aminopyrrolidin-1-yl]-1-(2-naphthyl)ethyl]cyclohexanol dihydrochloride], which inhibition at 1 µM is on record?
Its inhibition at 1 µM is 70.4%.

How did the inhibition at 1 µM turn out when `CNC1CCN(CC(c2ccc3cc(OC)ccc3c2)C2(O)CCCCC2)CC1` (stereo not drawn) [Example 344, 1-{1-(6-methoxy-2-naphthyl)-2-[4-(methylamino)piperidin-1-yl]ethyl}cyclohexanol dihydrochloride] was run?
The inhibition at 1 µM was 52%.

How did the inhibition at 1 µM turn out when `OC1(C(CN2CCC(N3CCCCC3)CC2)c2cccc(Oc3ccccc3)c2)CCCCC1` (stereo not drawn) [Example 314, 1-[2-(1,4′-bipiperidin-1′-yl)-1-[3-(phenoxyphenyl)ethyl]cyclohexanoldihydrochloride] was run?
The inhibition at 1 µM was 95.5%.

How did the inhibition at 1 µM turn out when `N[C@H]1CCN(CC(c2ccc(OCc3ccccc3)c(Cl)c2)C2(O)CCCCC2)C1` (stereo partly drawn) [Example 210, 1-{2-[(3S)-3-aminopyrrolidin-1-yl]-1-[4-(benzyloxy)-3-chlorophenyl]ethyl}cyclohexanol dihydrochloride] was run?
Its inhibition at 1 µM is 88.8%.

With `CC(C)(O)C(CN1CCC(N)CC1)c1cccc(Cl)c1` (stereo not drawn) [Example 273, 4-(4-aminopiperidin-1-yl)-3-(3-chlorophenyl)-2-methylbutan-2-ol dihydrochloride] as the compound, how does the inhibition at 1 µM read?
The inhibition at 1 µM was 79%.

How did the inhibition at 1 µM turn out when `N[C@H]1CCN(CC(c2cccc3ccccc23)C2(O)CCCCC2)C1` (stereo partly drawn) [Example 207, 1-[2-[(3S)-3-aminopyrrolidin-1-yl]-1-(1-naphthyl)ethyl]cyclohexanol dihydrochloride] was run?
Its inhibition at 1 µM is 65.7%.

Which inhibition at 1 µM does the source give for `CC1CCC(O)(C(CN2CCC(N)CC2)c2cccc(Cl)c2)CC1` (stereo not drawn) [Example 330, 1-[2-(4-aminopiperidin-1-yl)-1-(3-chlorophenyl)ethyl]-4-methylcyclohexanol dihydrochloride] here?
The inhibition at 1 µM was 43.9%.

`N[C@H]1CCN(C[C@H](c2cccc(Cl)c2)C2(O)CCCCC2)C1` [Example 387, 1-[(1S)-2-[(3S)-3-aminopyrrolidin-1-yl]-1-(3-chlorophenyl)ethyl]cyclohexanol dihydrochloride] was tested. Which pEC50 did it give?
The pEC50 was 6.39.

For `OC1(C(CN2CCC(N3CCCC3)CC2)c2cccc(C(F)(F)F)c2)CCCCC1` (stereo not drawn) [Example 26, 1-{2-(4-pyrrolidin-1-ylpiperidin-1-yl)-1-[3-(trifluoromethyl)phenyl]ethyl}cyclohexanol dihydrochloride], which inhibition at 1 µM is on record?
Its inhibition at 1 µM is 84%.

And the pEC50?
The pEC50 was 6.70.

For `N[C@@H]1CCN(CC(c2ccc(OCc3ccccc3)cc2)C2(O)CCCCC2)C1` (stereo partly drawn) [Example 380, 1-{2-[(3R)-3-aminopyrrolidin-1-yl]-1-[4-(benzyloxy)phenyl]ethyl}cyclohexanol dihydrochloride], which inhibition at 1 µM is on record?
Its inhibition at 1 µM is 20%.

With `COc1ccc2cc(C(CN3CCC(N(C)C)CC3)C3(O)CCCCC3)ccc2c1` (stereo not drawn) [Example 343, 1-[2-[4-(dimethylamino)piperidin-1-yl]-1-(6-methoxy-2-naphthyl)ethyl]cyclohexanol dihydrochloride] as the compound, how does the inhibition at 1 µM read?
Its inhibition at 1 µM is 48%.

With `CNC1CCN(CC(c2cccc(Br)c2)C2(O)CCCCC2)CC1` (stereo not drawn) [Example 19, 1-{1-(3-bromophenyl)-2-[4-(methylamino)piperidin-1-yl]ethyl}cyclohexanol dihydrochloride] as the compound, how does the inhibition at 1 µM read?
Its inhibition at 1 µM is 88%.

And the pEC50?
The pEC50 was 7.06.

Which inhibition at 1 µM does the source give for `CN[C@@H]1CCN(CC(c2cccc(Cl)c2)C2(O)CCCCC2)C1` (stereo partly drawn) [Example 200, 1-{1-(3-chlorophenyl)-2-[(3R)-3-(methylamino)pyrrolidin-1-yl]ethyl}cyclohexanol dihydrochloride] here?
Its inhibition at 1 µM is 54.1%.

How did the inhibition at 1 µM turn out when `CN(C)C1CCN(C[C@H](c2cccc(OC(F)(F)F)c2)C2(O)CCCCC2)CC1` [Example 360, 1-{(1S)-2-[4-(dimethylamino)piperidin-1-yl]-1-[3-(trifluoromethoxy)phenyl]ethyl}cyclohexanol dihydrochloride] was run?
Its inhibition at 1 µM is 88%.

And the pEC50?
Its pEC50 is 6.66.

Which results are given for `OC1(C(CN2CCC(N3CCCCC3)CC2)c2cccc(Br)c2)CCCCC1` (stereo not drawn) [Example 4, 1-[2-(1,4′-bipiperidin-1′-yl)-1-(3-bromophenyl)ethyl]cyclohexanol dihydrochloride]?
inhibition at 1 µM: 97%; pEC50: 6.80

With `COc1cc(C(CN2CCC(N)CC2)C2(O)CCCCC2)ccc1OCc1ccccc1` (stereo not drawn) [Example 450, 1-{2-(4-aminopiperidin-1-yl)-1-[4-(benzyloxy)-3-methoxyphenyl]ethyl}cyclohexanol dihydrochloride] as the compound, how does the inhibition at 1 µM read?
Its inhibition at 1 µM is 79%.

For `NC1CCN(CC(c2ccc(OCc3ccc4ccccc4c3)c(Cl)c2)C2(O)CCCCC2)CC1` (stereo not drawn) [Example 430, 1-{2-(4-aminopiperidin-1-yl)-1-[3-chloro-4-(2-naphthylmethoxy)phenyl]ethyl}cyclohexanol dihydrochloride], which inhibition at 1 µM is on record?
The inhibition at 1 µM was 42%.

For `CN[C@@H]1CCN(CC(c2ccc(OCc3ccccc3)cc2)C2(O)CCCCC2)C1` (stereo partly drawn) [Example 382, 1-{1-[4-(benzyloxy)phenyl]-2-[(3R)-3-(methylamino)pyrrolidin-1-yl]ethyl}cyclohexanol dihydrochloride], which inhibition at 1 µM is on record?
Its inhibition at 1 µM is 50%.

`NC1CCN(CC(c2cccc(Cl)c2)C2CCCCC2O)CC1` (stereo not drawn) [Example 239, 2-[2-(4-aminopiperidin-1-yl)-1-(3-chlorophenyl)ethyl]cyclohexanol dihydrochloride] was tested. Which inhibition at 1 µM did it give?
The inhibition at 1 µM was 81.8%.

With `OC1(C(CN2CCC(N3CCCCC3)CC2)c2cccc(Cl)c2)CCCCC1` (stereo not drawn) [Example 2, 1-[2-(1,4′-bipiperidin-1′-yl)-1-(3-chlorophenyl)ethyl]cyclohexanol dihydrochloride] as the compound, how does the inhibition at 1 µM read?
The inhibition at 1 µM was 100%.

What about the pEC50 of the same compound?
The pEC50 was 7.35.

With `CNC1CCN(C[C@H](c2cccc(Cl)c2)C2CCCCC2)CC1` (single isomer, unassigned) [Example 355, dihydrochloride] as the compound, how does the inhibition at 1 µM read?
The inhibition at 1 µM was 71%.

And the pEC50?
The pEC50 was 6.14.
